“Also recorded” adds a separate entry of the source.
Assays:
Salmonella typhimurium = assay: Ames test; assay type: cell-based; conditions: for bacterial mutagenicity: standard strains, with and without S9
Description: To evaluate bacterial mutagenicity, a full Ames test was carried out on fexinidazole and fexinidazole sulfone using the five strains of Salmonella typhimurium recommended by the relevant ICH regulatory guideline, namely TA1535, TA1537, TA98, TA100, and TA102, as well as the corresponding nitroreductase-deficient strains, [48]. Standard bacterial plate incorporation assays were carried out, essentially as described by Maron and Ames. Tests on fexinidazole were carried out with and without rat liver post-mitochondrial fraction plus co-factors (S9 mix) to provide a mammalian metabolic activation system. The S9 fraction was prepared from Spague-Dawley rats pretreated with the mixed cytochrome P 450 enzyme inducer Aroclor 1254. Tests on fexinidazole sulfone were carried out only in the absence of rat liver S9 (as this is a metabolite). After incubation at 37°C for three days, plates were scored for mutant colonies using a Colony Counter plate reader.

[1] = Chemical stability in incubation medium alone; assay type: physicochemical; conditions: fexinidazole 10 µM, Leibovitz medium alone, 120 min
Description: Incubations were performed in duplicate in a 48-well plate under shaking. Sampling was performed using an automatic liquid handling system (Multiprobe II EX, Packard). […] in acetonitrile (internal standard) were added, and samples centrifuged at 2000 rpm for 20 min. The supernatant was analyzed by LC-MS/MS. The chemical stability of fexinidazole was checked by incubating the compound at 37°C in the medium alone at t = 0 and 120 minutes. For the determination of phase I and phase II activity of hepatocytes, 7-ethoxycoumarin (7- […] incubated under the same conditions as fexinidazole. Aliquots of incubates were taken at 0, 10, 20, 30, 60 and 120 minutes and processed as fexinidazole samples. […] Metabolite Profile Study […] mouse, rat, dog, monkey and human hepatocytes (300000 cells/mL for the mouse and 1 million cells/mL for the other species) in a final incubation volume of 2 mL Leibovitz L-15 medium, at 37°C. Aliquots of the incubation samples were taken at t = 0, 30 and 120 minutes; the metabolism was stopped by the addition of an equal volume of cold acetonitrile and the samples centrifuged at 1500 rpm for 20 min. The supernatant was stored at -20°C until analysis. Control incubations were performed with the compound in the medium alone for 120 minutes. […] Nerviano Medical Sciences […] For the determination of phase I and phase II activities of hepatocytes, 7-ethoxycoumarin (7- […] incubated under the same conditions as fexinidazole. Aliquots of incubates were taken at 0, […] 7.5.2. Metabolite Profile Study […] pooled human hepatocytes (1 million cells/mL) in a final incubation volume of 2 mL Leibovitz L-15 medium, at 37°C. Aliquots of the incubation samples were taken at t = 0, 30 and 120 minutes; the metabolism was stopped by the addition of an equal volume of cold acetonitrile and the samples centrifuged at 1100 rpm for 20 min. The supernatant was stored at -20°C until analysis. Control incubations were performed with the compound in the medium alone for 120 minutes. […] Valco Divert Valve Step Total time (min) Position […]

human lymphocytes = assay: In vitro micronucleus test; assay type: cell-based
Description: Duplicate human lymphocyte cultures were prepared from the pooled blood of two donors in two independent experiments. […] The test concentrations for micronucleus analysis were selected by evaluating the effect of fexinidazole on the replication index (RI). In each experiment, micronuclei were analysed at three concentrations. Similar tests were carried out on fexinidazole sulfone. As per the Ames test, this was carried out in the absence of rat liver S9 only.

[2] = system: cytochrome P450 (CYP450) enzymes; assay: In vitro CYP-450 metabolism (whole panel); assay type: in vitro ADME, human; conditions: 1.0 µM, up to 60 min
Description: Duplicate samples of human recombinant CYP enzyme isotypes CYP1A2, CYP2B6, CYP2C8, CYP2C9, CYP2C19, CYP2D6, CYP3A4, CYP3A5 (10–30 pmol/mL) with NADPH as cofactor were incubated with fexinidazole, fexinidazole sulfoxide, or fexinidazole sulfone at a concentration of 1.0 µM for up to 60 min (pH 7.4, 37°C). Detection of the compounds was via HPLC-MS.

SMILES | mutagenic activity (Salmonella typhimurium; nitroreductase-deficient Salmonella strains) | bacterial mutagenicity (Salmonella typhimurium) | % of total drug related material [1] | % of total drug related material ([1]; listed as P) [%] | in vitro micronucleus test result (human lymphocytes) | Micronucleated binucleate cells (human lymphocytes; 20 μg/mL, 24-h PHA, +S9) [%] | Micronucleated binucleate cells (human lymphocytes; 20 μg/mL, 24-h PHA, −S9) [%] | Micronucleated binucleate cells (human lymphocytes; 20 μg/mL, 48-h PHA, +S9) [%] | Micronucleated binucleate cells (human lymphocytes; 20 μg/mL, 48-h PHA, −S9) [%] | Micronucleated binucleate cells (human lymphocytes; 40 μg/mL, 24-h PHA, +S9) [%] | Micronucleated binucleate cells (human lymphocytes; 40 μg/mL, 24-h PHA, −S9) [%] | Micronucleated binucleate cells (human lymphocytes; 40 μg/mL, 48-h PHA, +S9) [%] | Micronucleated binucleate cells (human lymphocytes; 40 μg/mL, 48-h PHA, −S9) [%] | Micronucleated binucleate cells (human lymphocytes; 80 μg/mL, 24-h PHA, +S9) [%] | Micronucleated binucleate cells (human lymphocytes; 80 μg/mL, 24-h PHA, −S9) [%] | Micronucleated binucleate cells (human lymphocytes; 80 μg/mL, 48-h PHA, +S9) [%] | Micronucleated binucleate cells (human lymphocytes; 80 μg/mL, 48-h PHA, −S9) [%] | metabolism by the enzymes tested [2]
CSc1ccc(OCc2ncc([N+](=O)[O-])n2C)cc1 [Fexinidazole, 1-methyl-2-((p-(methylthio)phenoxy)methyl)-5-nitroimidazole] | significantly reduced or abolished | elicited both frameshift and base substitution mutations; also recorded: mutagenic in the Ames test | about 84% | 82 | did not induce the formation of micronuclei | 0.50 | 0.50 | 0.60 | 1.1 | 0.55 | 0.40 | 1.20 | 0.60 | 0.75 | 0.70 | 0.40 | 0.90 | 
Cn1c([N+](=O)[O-])cnc1COc1ccc([S+](C)[O-])cc1 (stereo not shown) [Fexinidazole sulfoxide] |  |  | 18% |  |  |  |  |  |  |  |  |  |  |  |  |  |  | none of the enzymes tested metabolised
Cn1c([N+](=O)[O-])cnc1COc1ccc(S(C)(=O)=O)cc1 [Fexinidazole sulfone] |  | gave similar results to fexinidazole |  |  | negative |  |  |  |  |  |  |  |  |  |  |  |  | none of the enzymes tested metabolised
